Data as given in patent EP4800016A1, “METTL3 INHIBITOR” (Hangzhou Bangshun Pharmaceutical Co., Ltd., priority 2023, dated 2025).

What was measured:
Kasumi-1 cells = test: Kasumi-1 cell inhibitory activity (CellTiter-Glo, 5 days); assay type: cell-based; conditions: Homo sapiens, 120 h, 5 days incubation, CellTiter-Glo luminescence
Protocol: Test compounds were dissolved in DMSO to prep are a 250×final concentration solution. The initial concentration was 10 µM with 3-fold dilution, resulting in a total of ten concentration points. 4 µL of the compound solution was added to 96 µL of cell culture medium to dilute it to 10×the final concentration. On the first day, Kasumi-1 cells (purchased from Precedo) were suspended in cell culture medium at the desired density, 90 µL of the cell suspension was added to a 96-well plate, and 10 µL of 10×compound solution was added for incubation, with a final DMSO concentration of 0.4% in each well. Incubated at 37 °C, 5% CO2 for 5 days. Before measurement after 5 days, the test plate was placed at room temperature, 50 µL of CellTiter-Glo® reagent (purchased from Promega, Cat. No. G7573) was added, mixed on a shaker for 2 minutes to lyse the cells, and incubated at room temperature for 10 minutes to stabilize the […] signal. Luminescence values were recorded using Paradigm, and the response-concentration curve was fitted with Graphpad Pr ism 8.0 to calculate IC50values. The results of each compound are shown in Table2, where A indicates <100nM, B indicates 100-1000nM, and C indicates >1000nM. [formula]

METTL3/14 = target: T1, METTL3/14 (Homo sapiens, UniProt Q86U44); test: METTL3/14 methyltransferase activity assay (HTRF); assay type: biochemical; conditions: 10 concentrations, 3-fold dilution from 10 µM
T1 construct: purchased active motif 31570
Protocol: The final initial concentration of the compound was 10 µM, with 3-fold serial dilution to give a total of 10 concentrations. 100 nL of the compound was transferred to a 384-well plate and centrifuged at 1000 RPM. 2.5 µL of METTL3/14 (active motif, Cat No. 31570) was added to the test wells and incubated at 25°C for 10 min. 2.5 µL of METTL3-Biotin & SAM (GenScript) was added to the test wells andincubated at 25°C for 60 min. 2.5 µL of YTHDF1 (active motif, Cat No. 31608) was added to the test wells and centrifuged at 1000 RPM. 2.5 µL of Streptavidin-Tb (Perkin Elmer Cat No. 61SATLB) & Flag-mede (Perkin Elmer Cat No. 61FG2DLA) was added to the test wells and centrifuged at 1000 RPM. Incubated at 25°C for 60 min. HTRF was measured using a Plate reader. The results of each compound are shown in Table 1, where A+indicates <10nM, A indicates 10-100nM, B indicates 100-1000nM, and C indicates >1000nM.

T1 sequence (Q86U44 whole entry): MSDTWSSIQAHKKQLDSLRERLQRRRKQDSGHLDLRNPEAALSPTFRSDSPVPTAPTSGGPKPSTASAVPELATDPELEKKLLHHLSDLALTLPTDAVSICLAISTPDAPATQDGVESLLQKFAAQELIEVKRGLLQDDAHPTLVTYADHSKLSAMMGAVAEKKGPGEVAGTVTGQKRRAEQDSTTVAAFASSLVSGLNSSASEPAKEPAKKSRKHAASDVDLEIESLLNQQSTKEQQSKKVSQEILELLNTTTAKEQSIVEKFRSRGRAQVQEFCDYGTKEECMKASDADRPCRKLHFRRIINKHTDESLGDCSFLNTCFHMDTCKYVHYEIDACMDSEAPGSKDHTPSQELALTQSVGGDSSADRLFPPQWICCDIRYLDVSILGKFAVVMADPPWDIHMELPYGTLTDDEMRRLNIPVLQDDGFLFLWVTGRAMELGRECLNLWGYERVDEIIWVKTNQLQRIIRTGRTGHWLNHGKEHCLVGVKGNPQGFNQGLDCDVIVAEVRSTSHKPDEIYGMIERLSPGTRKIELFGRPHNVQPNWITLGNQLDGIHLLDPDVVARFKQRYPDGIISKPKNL
T1 sequence (Q9HCE5 whole entry partner): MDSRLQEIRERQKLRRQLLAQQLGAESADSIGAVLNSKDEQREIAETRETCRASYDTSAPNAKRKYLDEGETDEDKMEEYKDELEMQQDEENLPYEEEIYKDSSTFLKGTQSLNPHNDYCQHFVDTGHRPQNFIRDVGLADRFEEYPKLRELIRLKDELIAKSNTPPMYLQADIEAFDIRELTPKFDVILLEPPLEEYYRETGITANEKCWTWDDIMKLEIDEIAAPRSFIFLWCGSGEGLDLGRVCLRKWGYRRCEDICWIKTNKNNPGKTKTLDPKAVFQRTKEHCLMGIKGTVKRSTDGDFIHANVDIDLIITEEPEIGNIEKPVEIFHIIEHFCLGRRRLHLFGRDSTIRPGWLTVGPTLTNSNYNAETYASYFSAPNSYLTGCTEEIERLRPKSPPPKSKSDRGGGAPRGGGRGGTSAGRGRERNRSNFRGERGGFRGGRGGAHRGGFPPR

IC50 (METTL3/14) [nM] | Structure (SMILES) | IC50 (Kasumi-1 cells) [nM]
10 to 100 | O=C(NCc1ccc2cc(CNCC3CC(F)(F)C3)[nH]c2c1)c1cc(=O)n2cc3c(cc2n1)OCO3 [Example 26, N-((2-((((3,3-Difluorocyclobutyl)methyl)amino)methyl)-1H-indol-6-yl)methyl)-8-oxo-8H-[1,3]dioxolo[4',5':4,5]pyrido[1,2-a]pyrimidine-6-carboxamide] | 100 to 1000
10 to 100 | O=C(NCc1cc2[nH]c(CNCC3CCC3)cc2s1)c1cc(=O)n2cc3c(cc2n1)OCO3 [Example 32, N-((5-(((Cyclobutylmethyl)amino)methyl)-4H-thieno[3,2-b]pyrrol-2-yl)methyl)-8-oxo-8H-[1,3]dioxolo[4',5':4,5]pyrido[1,2-a]pyrimidine-6-carboxamide] | 100 to 1000
< 10 | O=C(NCc1ccc2cc(CNCC34CC(F)(C3)C4)[nH]c2c1)c1cc(=O)n2cc3c(cc2n1)OCO3 [Example 36, N-((2-((((3-Fluorobicyclo[1.1.1]pentan-1-yl)methyl)amino)methyl)-1H-indol-6-y1)methyl)-8-oxo-8H-[1,3]dioxolo[4',5':4,5]pyrido[1,2-a]pyrimidine-6-carboxamide] | < 100
< 10 | O=C(NCc1ccc2cc(CNC3CCC(F)(F)C3)[nH]c2c1)c1cc(=O)n2cc3c(cc2n1)OCO3 (stereo not drawn) [Example 38, N-((2-(((3,3-Difluorocyclopentyl)amino)methyl)-1H-indol-6-yl)methyl)-8-oxo-8H-[1,3]dioxolo[4',5':4,5]pyrido[1,2-a]pyrimidine-6-carboxamide] | 100 to 1000
< 10 | O=C(NCc1cn2cc(CNCC3CCC3)ccc2n1)c1cc(=O)n2cc3c(cc2n1)OCO3 [Example 41, N-((6-(((cyclobutylmethyl)amino)methyl)imidazo[1,2-a]pyridin-2-yl)methyl)-8-oxo-8H-[1,3]dioxolo[4',5':4,5]pyrido[1,2-a]pyrimidine-6-carboxamide] | 100 to 1000
10 to 100 | O=C(NCc1ccc2cc(CNCC3CCC3)[nH]c2c1)c1cn2ncc3c2c(n1)NCCO3 [Example 44, N-((2-(((Cyclobutylmethyl)amino)methyl)-1H-indol-6-yl)methyl)-7,8-dihydro-6H-9-oxa-2,2a,5,6-tetraazabenzo[cd]azulene-4-carboxamide] | 100 to 1000
10 to 100 | O=C(NCc1ccc2cc(CNCC3CCC3)[nH]c2c1)c1cn2ncc3c2c(n1)NCCC3 [Example 45, N-((2-(((Cyclobutylmethyl)amino)methyl)-1H-indol-6-yl)methyl)-6,7,8,9-tetrahydro-2,2a,5,6-tetraazabenzo[cd]azulene-4-carboxamide] | 100 to 1000
< 10 | O=C(NCc1ccc2cc(CNCC34CC(F)(C3)C4)[nH]c2c1)c1cc(=O)n2cc3c(cc2n1)OCCO3 [Example 46, N-((2-((((3-Fluorobicyclo[1.1.1]pentan-1-yl)methyl)amino)methyl)-1H-indol-6-yl)methyl)-9-oxo-2,3-dihydro-9H-[1,4]dioxolo[2',3':4,5]pyrido[1,2-a]pyrimidine-7-carboxamide] | < 100
< 10 | CC1(CNCc2cc3ccc(CNC(=O)c4cc(=O)n5cc6c(cc5n4)OCO6)cc3[nH]2)CCC1 [Example 51, N-((2-((((1-Methylcyclobutyl)methyl)amino)methyl)-1H-indol-6-yl)methyl)-8-oxo-8H-[1,3]dioxolo[4',5':4,5]pyrido[1,2-a]pyrimidine-6-carboxamide] | 100 to 1000
< 10 | CC1(CNCc2cc3ccc(CNC(=O)c4cc(=O)n5cc6c(cc5n4)OCCO6)cc3[nH]2)CCC1 [Example 52, N-((2-((((1-Methylcyclobutyl)methyl)amino)methyl)-1H-indol-6-yl)methyl)-9-oxo-2,3-dihydro-9H-[1,4]dioxino[2',3':4,5]pyrido[1,2-a]pyrimidine-7-carboxamide] | 100 to 1000
< 10 | CC1(CNCc2cc3ccc(CNC(=O)c4cc(=O)n5cc6c(cc5n4)OCO6)cc3[nH]2)CC(F)(F)C1 [Example 53, N-((2-((((3,3-Difluoro-1-methylcyclobutyl)methyl)amino)methyl)-1H-indol-6-yl)methyl)-8-oxo-8H-[1,3]dioxolo[4',5':4,5]pyrido[1,2-a]pyrimidine-6-carboxamide] | 100 to 1000
< 10 | CC1(CNCc2cc3ccc(CNC(=O)c4cc(=O)n5cc6c(cc5n4)OCCO6)cc3[nH]2)CC(F)(F)C1 [Example 54, N-((2-((((3,3-Difluoro-1-methylcyclobutyl)methyl)amino)methyl)-1H-indol-6-yl)methyl)-9-oxo-2,3-dihydro-9H-[1,4]dioxino[2',3':4,5]pyrido[1,2-a]pyrimidine-7-carboxamide] | 100 to 1000
< 10 | [2H]C([2H])(NCc1cc2ccc(CNC(=O)c3cc(=O)n4cc5c(cc4n3)OCO5)cc2[nH]1)C1CCC1 [Example 71, N-((2-(((Cyclobutylmethyl-d2)amino)methyl)-1H-indol-6-yl)methyl)-8-oxo-8H-[1,3]dioxolo[4',5':4,5]pyrido[1,2-a]pyrimidine-6-carboxamide] | < 100
10 to 100 | O=C(NCc1c(F)cc2cc(CNCC3CCC3)[nH]c2c1F)c1cc(=O)n2cc3c(cc2n1)OCO3 [Example 75, N-((2-(((Cyclobutylmethyl)amino)methyl)-5,7-difluoro-1H-indol-6-yl)methyl)-8-oxo-8H-[1,3]dioxolo[4',5':4,5]pyrido[1,2-a]pyrimidine-6-carboxamide] | 
10 to 100 | O=C(NCc1ccc2cc(CNCc3ccc(F)s3)[nH]c2c1)c1cc(=O)n2cc3c(cc2n1)OCCO3 [Example 76, N-((2-((((5-fluorothiophen-2-yl)methyl)amino)methyl)-1H-indol-6-yl)methyl)-9-oxo-2,3-dihydro-9H-[1,4]dioxino[2',3':4,5]pyrido[1,2-a]pyrimidin-7-carboxamide] | 
10 to 100 | O=C(NCc1ccc2cc(CNC[C@H]3CCCO3)[nH]c2c1)c1cc(=O)n2cc3c(cc2n1)OCCO3 [Example 78, (R)-9-Oxo-N-((2-((((tetrahydrofuran-2-yl)methyl)amino)methyl)-1H-indol-6-yl)methyl)-2,3-dihydro-9H-[1,4]dioxino[2',3':4,5]pyrido[1,2-a]pyrimidine-7-carboxamide] | 
10 to 100 | O=C(NCc1ccc2cc(CNC[C@@H]3CCO3)[nH]c2c1)c1cc(=O)n2cc3c(cc2n1)OCCO3 [Example 79, (S)-N-((2-(((oxetan-2-ylmethyl)amino)methyl)-1H-indol-6-yl)methyl)-9-oxo-2,3-dihydro-9H-[1,4]dioxolo[2',3':4,5]pyrido[1,2-a]pyrimidine-7-carboxamide] | 
10 to 100 | COC1(CNCc2cc3ccc(CNC(=O)c4cc(=O)n5cc6c(cc5n4)OCCO6)cc3[nH]2)CCC1 [Example 80, N-((2-((((1-Methoxycyclobutyl)methyl)amino)methyl)-1H-indol-6-yl)methyl)-9-oxo-2,3-dihydro-9H-[1,4]dioxino[2',3':4,5]pyrido[1,2-a]pyrimidine-7-carboxamide] | 
100 to 1000 | O=C(NCc1ccc2cc(CN3CCOC4(CCC4)C3)[nH]c2c1)c1cc(=O)n2cc3c(cc2n1)OCCO3 [Example 81, N-((2-((5-oxa-8-azaspiro[3.5]nonan-8-yl)methyl)-1H-indol-6-yl)methyl)-9-oxo-2,3-dihydro-9H-[1,4]dioxino[2',3':4,5]pyrido[1,2-a]pyrimidine-7-carboxamide] | 
10 to 100 | O=C(NCc1ccc2cc(CNCc3ccc(F)s3)[nH]c2c1)c1cc(=O)n2cc3c(cc2n1)OCO3 [Example 82, N-((2-((((5-Fluorothiophen-2-yl)methyl)amino)methyl)-1H-indol-6-yl)methyl)-8-oxo-8H-[1,3]dioxolo[2',3':4,5]pyrido[1,2-a]pyrimidine-6-carboxamide] | 
< 10 | COC1(CNCc2cc3ccc(CNC(=O)c4cc(=O)n5cc6c(cc5n4)OCO6)cc3[nH]2)CCC1 [Example 83, N-((2-((((1-Methoxycyclobutyl)methyl)amino)methyl)-1H-indol-6-yl)methyl)-8-oxo-8H-[1,3]dioxolo[2',3':4,5]pyrido[1,2-a]pyrimidine-6-carboxamide] | 

Structure (SMILES) | IC50 (METTL3/14) [nM] | IC50 (Kasumi-1 cells) [nM]
O=C(NCc1ccc2cc(CNCC3CCC3)[nH]c2c1)c1cc(=O)n2cc3c(cc2n1)OCCO3 [Example 20, N-((2-(((Cyclobutylmethyl)amino)methyl)-1H-indol-6-yl)methyl)-9-oxo-2,3-dihydro-9H-[1,4]dioxolo[2',3':4,5]pyrido[1,2-a]pyrimidine-7-carboxamide] | 10 to 100 | 100 to 1000
